How the values were obtained:
GLP1R [1] = target: T1, GLP1R (Homo sapiens, UniProt P43220); assay: GLP1R cAMP assay (HTRF), HEK293/GLP-1R/CRE/Luc, Clone 4
Target sequence in this assay (P43220 24-463): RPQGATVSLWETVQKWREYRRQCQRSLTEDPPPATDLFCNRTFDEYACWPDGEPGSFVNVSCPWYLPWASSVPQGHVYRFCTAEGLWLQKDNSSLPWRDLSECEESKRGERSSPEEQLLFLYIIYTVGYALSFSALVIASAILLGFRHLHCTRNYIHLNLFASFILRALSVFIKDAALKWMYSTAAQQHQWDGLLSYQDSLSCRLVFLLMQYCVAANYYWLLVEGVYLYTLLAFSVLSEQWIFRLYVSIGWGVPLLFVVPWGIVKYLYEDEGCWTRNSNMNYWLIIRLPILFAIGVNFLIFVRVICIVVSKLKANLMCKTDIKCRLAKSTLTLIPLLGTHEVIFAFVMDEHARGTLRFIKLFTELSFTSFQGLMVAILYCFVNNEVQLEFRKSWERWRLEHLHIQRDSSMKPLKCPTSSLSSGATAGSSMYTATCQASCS

GLP1R [2] = target: T1, GLP1R; assay: cAMP assay in CHO cells stably expressing hGLP-1R; assay type: cell-based; design: expressed in transfected cells; host or cells: CHO cells stably transfected; settings: CHO cells stably expressing hGLP-1R (Table 2), read-out: CHO cAMP stable EC50
Experimental: GLP-1R-mediated agonist activity was determined with a cell-based functional assay utilizing an HTRF (Homogeneous Time-Resolved Fluorescence) cAMP detection kit (cAMP Dynamic 2 Assay Kit; CisBio cat #62AM4PEC) that measures cAMP levels in the cell. The method is a competitive immunoassay between native cAMP produced by the cells and exogenous cAMP labeled with the dye d2. The tracer binding is visualized by a mAb anti-cAMP labeled with Cryptate. The specific signal (i.e., energy transfer) is inversely proportional to the concentration of cAMP in either standard or experimental sample.
Following the 30 minute incubation, 5 μL of labeled d2 cAMP and 5 μL of anti-cAMP antibody (both diluted 1:20 in cell lysis buffer; as described in the manufacturer's assay protocol) were added to each well of the assay plate. […] Raw data were converted to nM cAMP by interpolation from a cAMP standard curve (as described in the manufacturer's assay protocol) and the percent effect was determined relative to a saturating concentration of the full agonist GLP-17-37 (10 nM) included on each plate. EC50 determinations were made from agonist dose-response curves analyzed with a curve fitting program using a 4-parameter logistic dose response equation. […]
Target sequence in this assay (P43220 24-463): as above

GLP1R [3] = target: T1, GLP1R; design: Emax: dose or concentration left out as unconfirmed; settings: CHO-K1, […], read-out: β-arrestin recruitment Bmax (%)
Target sequence in this assay (P43220 24-463): as above
Target sequence in this assay (P32121 whole entry partner): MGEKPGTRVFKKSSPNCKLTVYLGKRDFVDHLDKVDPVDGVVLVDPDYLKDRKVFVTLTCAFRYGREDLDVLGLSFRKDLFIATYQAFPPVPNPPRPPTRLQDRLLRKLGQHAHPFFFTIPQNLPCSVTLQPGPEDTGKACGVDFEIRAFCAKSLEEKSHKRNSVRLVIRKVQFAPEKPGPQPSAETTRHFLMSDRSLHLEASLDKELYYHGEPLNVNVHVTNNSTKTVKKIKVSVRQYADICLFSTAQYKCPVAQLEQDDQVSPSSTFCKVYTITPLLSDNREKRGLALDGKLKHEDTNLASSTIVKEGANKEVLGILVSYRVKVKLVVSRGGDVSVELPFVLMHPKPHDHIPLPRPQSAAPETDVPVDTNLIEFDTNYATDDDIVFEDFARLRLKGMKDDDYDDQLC
Experimental: Frozen cells were quickly thawed and 10 mL of cell plating medium (provided by the kit) was added to thawed cells. Cells were stored in a 37° C. incubator under 5% CO2 and kept for approximately 48 hours until ready to run the assay.
Reference and test compounds were dissolved in 100% DMSO. […] 5 μL of this solution was added to 20 μL cell medium in assay plate for a final top concentration of 10 μM. Plates were then incubated at 37° C. under 5% CO2 for 90 min.
Following 90 min incubation, detection reagents were made up by combining 1 part Galacton Star Substrate with 5 parts Emerald II™ Solution, and 19 parts of PathHunter Cell Assay Buffer, respectively. 12.5 μl detection reagent was added to each well. The plates were then incubated at room temperature in dark for 60 min. Plates were then read on Envision for 0.1 sec/well.
Cells were plated at a density of 1000 or 2000 cells/20 μL/well. Frozen cells were quickly thawed and added to 10 mL of cell plating medium. Cells were stored in a 37 degree incubator under 5% CO2 and left for approximately 48 hours until ready to run the assay
Prepare 10× concentration of an agonist in serum free DMEM, and add all solutions into the compound plate. 2.5 μL of this solution was added to 20 μL cell medium in assay plate for a final top concentration of 10 μM. Plates were incubated at 37° C. under 5% CO2 for 30 min. An additional 2.5 μL of Buffer was added to the entire plate for agonist mode and incubated at 37° C. for another 90 min.
Following 90 min incubation, detection reagents were made up as described. 12.5 μL was added to all wells. The plates were then incubated at room temperature in dark for 60 min. Plates were then read on Envision for 0.1 sec/well.
Data analysis: GraphPad Prism 6 was used for establishment of progression curve. EC50s or IC50s were determined by 4-parameter logistic dose response equation.

GLP1R [4] = target: T1, GLP1R; assay: β-Arrestin-mediated GLP1R internalization assay (PathHunter U2OS cells); assay type: cell-based; design: host or cells: PathHunter engineered U2OS cells; settings: averaged Bmax where applicable, Percentage of Control GLP-1 (7-37), top 10 μM, 180 min
Description: A similar assay can also be used to assess the extent of signal attenuation due to GLP-1R internalization (the Internalization Assay). In this assay, activated GLP1R Internalization cells were engineered to co-express an untagged GLP1R, Enzyme Acceptor (EA) tagged β-Arrestin, and a ProLink™ (PK) tag localized to the endosomes. Activation of the GLP1R induces β-Arrestin recruitment, which leads to internalization of the Receptor/Arrestin-EA complex in PK-tagged endosomes. This forces complementation of the two β-galactosidase enzyme fragments (EA and PK) to form a functional enzyme that hydrolyzes substrate to generate a chemiluminescent signal.
Frozen cells were quickly thawed and 10 mL of cell plating medium (provided by the kit) was added to thawed cells. Cells were stored in a 37° C. incubator and kept for approximately 48 hours until ready for the assay.
Reference and test compounds were dissolved in 100% DMSO. […] 5 μL of this solution was added to 20 μL cell medium in assay plate for a final top concentration of 10 μM. Plates were incubated at 37° C. for 180 min.
Following 180 min incubation, detection reagents were made up by combining 1 part Galacton Star Substrate with 5 parts Emerald II™ Solution, and 19 parts of PathHunter Cell Assay Buffer, respectively. 12.5 μL detection reagent was added to each well. The plates were then incubated at room temperature for 60 min. Plates were then read on Envision for 0.1 sec/well.
EC50 determinations were made from agonist dose-response curves analyzed with a curve fitting program using a 4-parameter logistic dose response equation.
Target sequence in this assay (P43220 24-463): as the sequence (P43220 24-463) above
Target sequence in this assay (P32121 whole entry partner): as the sequence (P32121 whole entry partner) above

Structure (SMILES) | EC50 (GLP1R [1]) | EC50 (GLP1R [2]) | Emax (GLP1R [3]) | β-arrestin internalization Bmax (POC) (GLP1R [4])
N#Cc1ccc(COc2nc(-c3ccc(Cc4nc5ccc(C(=O)O)nc5n4C[C@@H]4CCO4)c(F)c3)ncc2F)c(F)c1 [Compound 263, (S)-2-(4-(4-(4-cyano-2-fluorobenzyloxy)-5-fluoropyrimidin-2-yl)-2-fluorobenzyl)-3-(oxetan-2-ylmethyl)-3H-imidazo[4,5-b]pyridine-5-carboxylic acid] | < 15 nM | < 15 nM | 18.9% | 
N#Cc1ccc(COc2nc(-c3ccc(Cc4nc5ccc(C(=O)O)cc5n4C[C@@H]4CCO4)c(F)c3)ncc2F)c(F)c1 [Compound 266, (S)-2-(4-(4-((4-cyano-2-fluorobenzyl)oxy)-5-fluoropyrimidin-2-yl)-2-fluorobenzyl)-1-(oxetan-2-ylmethyl)-1H-benzo[d]imidazole-6-carboxylic acid] | < 15 nM | < 15 nM | 26.7 ± 4.76% | 19.9 ± 0.122 POC
O=C(O)c1ccc2nc(Cc3cc(F)c(-c4ncc(F)c(OCc5ncc(Cl)cc5F)n4)cc3F)n(C[C@@H]3CCO3)c2c1 [Compound 272, (S)-2-(4-(4-((5-chloro-3-fluoropyridin-2-yl)methoxy)-5-fluoropyrimidin-2-yl)-2,5-difluorobenzyl)-1-(oxetan-2-ylmethyl)-1H-benzo[d]imidazole-6-carboxylic acid] | < 15 nM | 15 to 150 nM |  | 
O=C(O)c1ccc2nc(Cc3cc(F)c(-c4cccc(OCc5ncc(Cl)cc5F)n4)cc3F)n(C[C@@H]3CCO3)c2n1 [Compound 276, (S)-2-(4-(6-((5-chloro-3-fluoropyridin-2-yl)methoxy)pyridin-2-yl)-2,5-difluorobenzyl)-3-(oxetan-2-ylmethyl)-3H-imidazo[4,5-b]pyridine-5-carboxylic acid] | < 15 nM | < 15 nM | 35.6 ± 3.9% | 26.7 POC
N#Cc1cnc(COc2cccc(-c3cc(F)c(Cc4nc5ccc(C(=O)O)nc5n4C[C@@H]4CCO4)cc3F)n2)c(F)c1 [Compound 278, (S)-2-(4-(6-((5-cyano-3-fluoropyridin-2-yl)methoxy)pyridin-2-yl)-2,5-difluorobenzyl)-3-(oxetan-2-ylmethyl)-3H-imidazo[4,5-b]pyridine-5-carboxylic acid] | < 15 nM | < 15 nM | 36.2 ± 5.56% | 36.5 POC
N#Cc1ccc(COc2cccc(-c3cc(F)c(Cc4nc5ccc(C(=O)O)nc5n4C[C@@H]4CCO4)cc3F)n2)nc1 [Compound 279, (S)-2-(4-(6-((5-cyanopyridin-2-yl)methoxy)pyridin-2-yl)-2,5-difluorobenzyl)-3-(oxetan-2-ylmethyl)-3H-imidazo[4,5-b]pyridine-5-carboxylic acid] | < 15 nM | < 15 nM |  | 
N#Cc1ccc(COc2nc(-c3cc(F)c(Cc4nc5ccc(C(=O)O)nc5n4C[C@@H]4CCO4)cc3F)ncc2F)nc1 [Compound 280, (S)-2-(4-(4-((5-cyanopyridin-2-yl)methoxy)-5-fluoropyrimidin-2-yl)-2,5-difluorobenzyl)-3-(oxetan-2-ylmethyl)-3H-imidazo[4,5-b]pyridine-5-carboxylic acid] | < 15 nM | 15 to 150 nM |  | 
O=C(O)c1ccc2nc(Cc3ccc(-c4cccc(OCc5ccc(Cl)cc5F)n4)cc3F)n(C[C@@H]3CCO3)c2n1 [Compound 287, (S)-2-(4-(6-((4-chloro-2-fluorobenzyl)oxy)pyridin-2-yl)-2-fluorobenzyl)-3-(oxetan-2-ylmethyl)-3H-imidazo[4,5-b]pyridine-5-carboxylic acid] |  | 15 to 150 nM |  | 
N#Cc1ccc(COc2cccc(-c3ccc(Cc4nc5ccc(C(=O)O)nc5n4C[C@@H]4CCO4)c(F)c3)n2)nc1 [Compound 288, (S)-2-(4-(6-((5-cyanopyridin-2-yl)methoxy)pyridin-2-yl)-2-fluorobenzyl)-3-(oxetan-2-ylmethyl)-3H-imidazo[4,5-b]pyridine-5-carboxylic acid] | < 15 nM | 15 to 150 nM |  | 
O=C(O)c1ccc2nc(Cc3ccc(-c4ncc(F)c(OCc5ncc(Cl)cc5F)n4)cc3F)n(C[C@@H]3CCO3)c2n1 [Compound 294, (S)-2-(4-(4-((5-chloro-3-fluoropyridin-2-yl)methoxy)-5-fluoropyrimidin-2-yl)-2-fluorobenzyl)-3-(oxetan-2-ylmethyl)-3H-imidazo[4,5-b]pyridine-5-carboxylic acid] | < 15 nM | 15 to 150 nM |  | 
O=C(O)c1ccc2nc(Cc3cc(F)c(-c4cccc(OCc5ccc(Cl)cn5)n4)cc3F)n(C[C@@H]3CCO3)c2n1 [Compound 296, (S)-2-(4-(6-((5-chloropyridin-2-yl)methoxy)pyridin-2-yl)-2,5-difluorobenzyl)-3-(oxetan-2-ylmethyl)-3H-imidazo[4,5-b]pyridine-5-carboxylic acid] | < 15 nM | < 15 nM |  | 
O=C(O)c1ccc2nc(Cc3cc(F)c(-c4cccc(OCc5ccc(F)cn5)n4)cc3F)n(C[C@@H]3CCO3)c2n1 [Compound 298, (S)-2-(2,5-difluoro-4-(6-((5-fluoropyridin-2-yl)methoxy)pyridin-2-yl)benzyl)-3-(oxetan-2-ylmethy)-3H-imidazo[4,5-b]pyridine-5-carboxylic acid] | < 15 nM | 15 to 150 nM |  | 
O=C(O)c1ccc2nc(Cc3cc(F)c(-c4ncc(F)c(OCc5ccc(Cl)cn5)n4)cc3F)n(C[C@@H]3CCO3)c2n1 [Compound 300, (S)-2-(4-(4-((5-chloropyridin-2-yl)methoxy)-5-fluoropyrimidin-2-yl)-2,5-difluorobenzyl)-3-(oxetan-2-ylmethyl)-3H-imidazo[4,5-b]pyridine-5-carboxylic acid] | < 15 nM | 15 to 150 nM |  | 
N#Cc1cnc(COc2nc(-c3ccc(Cc4nc5ccc(C(=O)O)nc5n4C[C@@H]4CCO4)c(F)c3)ncc2F)c(F)c1 [Compound 301, (S)-2-(4-(4-((5-cyano-3-fluoropyridin-2-yl)methoxy)-5-fluoropyrimidin-2-yl)-2-fluorobenzyl)-3-(oxetan-2-ylmethyl)-3H-imidazo[4,5-b]pyridine-5-carboxylic acid] | < 15 nM | 15 to 150 nM |  | 
N#Cc1ccc(COc2cccc(-c3ccc(Cc4nc5ccc(C(=O)O)c(F)c5n4C[C@@H]4CCO4)c(F)c3)n2)c(F)c1 [Compound 310, (S)-2-(4-(6-((4-cyano-2-fluorobenzyl)oxy)pyridin-2-yl)-2-fluorobenzyl)-7-fluoro-1-(oxetan-2-ylmethyl)-1H-benzo[d]imidazole-6-carboxylic acid] | < 15 nM | < 15 nM | 37.8% | 
N#Cc1ccc(COc2cccc(-c3ccn(Cc4nc5ccc(C(=O)O)c(F)c5n4C[C@@H]4CCO4)c(=O)c3)n2)c(F)c1 [Compound 322, (S)-2-((6-((4-cyano-2-fluorobenzyl)oxy)-2′-oxo-[2,4′-bipyridin]-1′(2′H)-yl)methyl)-7-fluoro-1-(oxetan-2-ylmethyl)-1H-benzo[d]imidazole-6-carboxylic acid] | < 15 nM | 15 to 150 nM |  | 
O=C(O)c1ccc2nn(Cc3ccc(-c4cccc(OCc5ccc(Cl)cc5F)n4)cc3F)c(CC3CCO3)c2c1 (centres unmarked) [Compound 326, 2-(4-(6-(4-chloro-2-fluorobenzyloxy)pyridin-2-yl)-2-fluorobenzyl)-3-(oxetan-2-ylmethyl)-2H-indazole-S-carboxylic acid] | 15 to 150 nM | > 1000 nM |  | 

Source: patent US10954221B2, “GLP-1R agonists and uses thereof” (QILU REGOR THERAPEUTICS INC., priority 2019, dated 2021)
